Assay [1] has as its system Plasmodium falciparum 3D7 (drug sensitive) strain. Kind of assay: Growth inhibition of P. falciparum 3D7 in erythrocytic co-culture. The format is cell-based. The conditions noted are these: 3D7, read-out: EC50 3D7.
Assay [2] has as its system Plasmodium falciparum K1 (drug resistant) strain. Kind of assay: Growth inhibition of P. falciparum K1 in erythrocytic co-culture. The following applies: K1, read-out: EC50 K1. The format is cell-based.

Some results are limits rather than exact numbers.

The text below walks through data of PMC3208124 (Journal of medicinal chemistry, 2011).

On to `O=C(CCc1ccccc1)c1ccccc1OCC(O)CN1CCN(C(c2ccccc2)c2ccccc2)CC1` (centres unmarked) [Compound 6z], for which the EC50 in assay [1] and in assay [2] was no more than 100 nM each time.

As a reminder, the EC50 is the concentration that produces a half-maximal response.
